Reference: patent US10293055B2, “Acetylenedicarboxyl linkers and their uses in specific conjugation of a cell-binding molecule” (SUZHOU M-CONJ BIOTECH CO., LTD., priority 2015, dated 2019)

Columns and labels:
[1] = tested on: NCI-N87, a human gastric carcinoma cell line
Protocol: (§1) The cell lines used in the cytotoxicity assays were HL-60, a human promyelocytic leukemia cell line; NCI-N87, a human gastric carcinoma cell line; BT-474, a human invasive ductal carcinoma cell line; and SKOV3, a human ovarian carcinoma cell line. For HL-60, NCI-N87, and BT-474 cells, the cells were grown in RPMI-1640 with 10% FBS. For SKOV3 cells, the cells were grown in McCoy's 5A Medium with 10% FBS. To run the assay, the cells (180 μl, 6000 cells) were added to each well in a 96-well plate and incubated for 24 hours at 37° C. with 5% CO2. Next, the cells were treated with test compounds (20 μl) at various concentrations in appropriate cell culture medium (total volume, 0.2 mL). The control wells contain cells and the medium but lack the test compounds. The plates were incubated for 120 hours at 37° C. with 5% CO2. MTT (5 mg/ml) was then added to the wells (20 μl) and the plates were incubated for 1.5 hr at 37° C. The medium was carefully removed and DMSO (180 μl) was added afterward. After it was shaken for 15 min, the absorbance was measured at 490 nm and 570 nm with a reference filter of 620 nm. The inhibition % was calculated according to the following equation: inhibition %=[1-(assay-blank)/(control-blank)]×100.

[2] = tested on: SKOV3, a human ovarian carcinoma cell line
Protocol: as §1

[3] = tested on: HL-60, a human promyelocytic leukemia cell line; settings: read-out: IC50 (nM) HL60 cell (Ag+); MTT, 120 hours incubation
Protocol: as §1

[4] = tested on: human gastric carcinoma N-87 cell line tumor xenograft; settings: one injection
Protocol: Five-week-old female BALB/c Nude mice (24 animals) were inoculated subcutaneously in the area under the right shoulder with N-87 carcinoma cells (5×10^6 cells/mouse) in 0.1 mL of serum-free medium. The tumors were grown for 8 days to an average size of 130 mm^3. The animals were then randomly divided into 4 groups (6 animals per group). The first group of mice served as the control group and was treated with the phosphate-buffered saline vehicle. […] Three dimensions of the tumor were measured every 4 days and the tumor volumes were calculated using the formula tumor volume=½ (length×width×height). The weight of the animals was also measured at the same time. A mouse was sacrificed when any one of the following criteria was met: (1) loss of body weight of more than 20% from pretreatment weight, (2) tumor volume larger than 1500 mm^3, (3) too sick to reach food and water, or (4) skin necrosis. A mouse was considered to be tumor-free if no tumor was palpable.

T-DM1
Specificity for N87 cell ([1]; IC50 HL60 / IC50 N87): over 55 | IC50 ([1]; read-out: IC50 (nM) N87 cell (Ag+), MTT, 120 hours incubation): 0.27 nM | Specificity for SK-OV-3 cell ([2]; IC50 HL60 / IC50 SK-OV-3): over 78 | IC50 ([2]; read-out: IC50 (nM) SK-OV-3 cell (Ag+), MTT, 120 hours incubation): 0.191 nM | IC50 [3]: > 15 nM | Animals with no tumor measurable ([4]; 5 mg/Kg intravenously, 6 animals per group): 2/6 | Anti-tumor effect (FIG. 11) ([4]; 5 mg/kg, i.v.): did not completely eliminate the tumor | Duration of tumor growth inhibition ([4]; 5 mg/kg, i.v.): 44 days
